Columns and labels:
[1] = system: primary DA midbrain neurons; assay: Protection of primary DA midbrain neurons against 6-OHDA toxicity (TH-positive neuron count); format: cell-based, mice; conditions: 1 μM agonist 1 h, 0-50 μM 6-OHDA 24 h
Experimental: (§1) Experiments were conducted in accordance with the ethical guidelines of H. Lundbeck A/S and the Danish legislation of animal use for scientific procedures. Cell culture was basically performed as described (Nagel et al., [2008]), with few modifications. […] Plates were stored at 4°C until tyrosine-hydroxylase-positive (TH-positive) neurons were counted using a Thermo Scientific Cellomics® ArrayScan® VTI HCS Reader. […] To ensure that only healthy primary cultures were assessed, we furthermore excluded experiments with total cell counts below Mean minus standard deviation (SD) of the summarized experiments. […]
Neuronal midbrain cultures were pretreated with 1 μM of either one of the agonists compound 1 ( [drawing 9] ), compound 2 ( [drawing 10] ), or compound 3 ( [drawing 11] ), or vehicle ( [drawing 12] ) for 1 h, followed by treatment with the indicated concentrations of 6-hydroxydopamine (6-OHDA) for 24 h. TH-positive neurons were counted and normalized to control numbers.

[2] = target: norepinephrine transporter (Homo sapiens, UniProt P23975); assay: Inhibition of binding to the norepinephrine transporter (cross reactivity); conditions: concentration not given
Chain of norepinephrine transporter (P23975 whole entry, species assumed): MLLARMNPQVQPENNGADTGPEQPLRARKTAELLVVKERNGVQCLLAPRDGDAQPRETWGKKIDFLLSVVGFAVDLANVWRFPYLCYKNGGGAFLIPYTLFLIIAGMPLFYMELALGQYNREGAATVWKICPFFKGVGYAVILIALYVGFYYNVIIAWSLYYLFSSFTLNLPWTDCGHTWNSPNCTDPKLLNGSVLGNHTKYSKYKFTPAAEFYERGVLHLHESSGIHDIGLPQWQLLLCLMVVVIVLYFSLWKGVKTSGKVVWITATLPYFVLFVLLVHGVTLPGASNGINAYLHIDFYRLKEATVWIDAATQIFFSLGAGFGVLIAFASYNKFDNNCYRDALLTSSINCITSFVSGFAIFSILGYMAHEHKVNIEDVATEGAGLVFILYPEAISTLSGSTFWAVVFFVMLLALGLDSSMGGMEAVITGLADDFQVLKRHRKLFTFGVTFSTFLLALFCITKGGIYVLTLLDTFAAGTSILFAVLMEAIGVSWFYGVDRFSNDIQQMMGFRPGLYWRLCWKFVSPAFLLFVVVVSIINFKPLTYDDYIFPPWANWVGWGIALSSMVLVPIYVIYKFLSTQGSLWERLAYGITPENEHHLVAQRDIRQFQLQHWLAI
Experimental: (§2) None of the compounds were useful in vivo tools due to their unfavorable ADME properties including low whole brain exposure and brain/plasma ratio (Shi et al., [2011]). Cross reactivity with the DAT or the norepinephrine transporter was determined as described (Shi et al., [2011]).
(§3) As both 6-OHDA and MPP^+ are taken up via the DAT, it was not likely that the agonists mediated their protection against MPP^+ by merely blocking the DAT. However, to further exclude the possibility that the protection against MPP^+ by the agonist compound 3 is mediated by blocking MPP^+ uptake, rather than signaling through GPR139, DA and noradrenaline uptake in the presence of the agonist was tested. […] Ten micrometres (10 μM) compound 1 inhibited binding to the DAT or the norepinephrine transporter by 4% or −8%, respectively (Shi et al., [2011]) compound 2 inhibited binding to the DAT or the norepinephrine transporter 2% or −4%, respectively.

[3] = target: DAT (Homo sapiens, UniProt Q01959); assay: Inhibition of binding to the DAT (cross reactivity); conditions: concentration not given
Chain of DAT (Q01959 whole entry, species assumed): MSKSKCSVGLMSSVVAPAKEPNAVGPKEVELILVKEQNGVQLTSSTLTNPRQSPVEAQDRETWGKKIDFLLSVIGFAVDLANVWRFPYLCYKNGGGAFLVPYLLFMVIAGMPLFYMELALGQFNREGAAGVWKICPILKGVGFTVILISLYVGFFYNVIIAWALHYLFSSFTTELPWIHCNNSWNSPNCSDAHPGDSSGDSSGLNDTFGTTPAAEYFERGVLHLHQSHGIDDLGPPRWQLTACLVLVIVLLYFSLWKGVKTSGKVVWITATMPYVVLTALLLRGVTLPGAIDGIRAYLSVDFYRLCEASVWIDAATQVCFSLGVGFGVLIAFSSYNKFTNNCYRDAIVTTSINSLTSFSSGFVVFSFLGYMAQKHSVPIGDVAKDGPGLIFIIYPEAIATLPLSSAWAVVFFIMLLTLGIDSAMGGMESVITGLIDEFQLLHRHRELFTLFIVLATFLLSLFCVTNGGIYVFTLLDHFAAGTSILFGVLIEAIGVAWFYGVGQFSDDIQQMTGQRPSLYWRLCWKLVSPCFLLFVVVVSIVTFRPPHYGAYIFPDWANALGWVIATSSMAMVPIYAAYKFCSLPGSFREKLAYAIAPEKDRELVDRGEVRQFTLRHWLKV
Experimental: as §2, §3

[4] = system: primary DA midbrain neurons; assay: Protection of primary DA midbrain neurons against rotenone toxicity (TH-positive neuron count); format: cell-based, mice; conditions: 1 μM agonist 1 h, 0-100 nM rotenone 24 h, n = 4
Experimental: as §1
Mesencephalic cultures were treated with 1 μM of either one of the GPR139 agonists compound 1 ( [drawing 13] ), compound 2 ( [drawing 14] ), or compound 3 ( [drawing 15] ), or vehicle ( [drawing 16] ) for 1 h before exposing them to 0–100 nM of rotenone. […] TH-positive neurons were counted and normalized to control numbers (100%).

[5] = system: primary DA midbrain neurons; assay: Protection of primary DA midbrain neurons against MPP+ toxicity (TH-positive neuron count); format: cell-based, mice; conditions: 1 μM MPP+ 24 h
Experimental: Experiments were conducted in accordance with the ethical guidelines of H. Lundbeck A/S and the Danish legislation of animal use for scientific procedures. Cell culture was basically performed as described (Nagel et al., [2008]), with few modifications. Briefly, the mesencephalon floor was dissected from embryonic day (E) 13 mice, tissue pieces collected in HBBS, transferred to 0.1% trypsin, 0.05% DNAse (Sigma-Aldrich DN25–1G) and incubated at 37°C in a humidified atmosphere with 5% CO2 for 20 min; washed in DNAse, homogenized and centrifuged at 200× g, resuspended in medium (DMEM (Gibco 41965–039), 10% FCS, 1% P/S (Gibco, 15140–122), l.5% HEPES (Gibco, 15630–056), 1% Sodium Pyruvate (Gibco, 11360–039)) and plated on poly-L-lysine coated 96-well dishes. The medium was switched to neurobasal medium after 90 min (neurobasal (Gibco 21103–049) with 1% P/S, 2% B27 (Gibco, 17504–044), 1.25% 0.5 mM L-glutamine (Gibco, 25030–024)). After 6 days in vitro (DIV), cultures were treated with 1 μM of three different GPR139 agonists and in some experiments, concomitantly, with 10 μM of the antagonist for1 h, before exposing them to 0–1 μM MPP^+, 0–50 μM 6-OHDA or 0–100 nM rotenone for 24 h. For the MPP^+ treated cultures, it was also tested whether the effect of the GPR139 agonists could be blocked by concomitantly applying 10 μM GPR139 antagonist (IC50 3 μM). Subsequently, cells were fixed in 4% PFA/PBS for 10 min, washed with PBS, incubated in 0.5% BSA/0.1% Triton-X/5% porcine serum for 20 min, and incubated for 24 h in rabbit anti-tyrosine hydroxylase antibodies (1:1000 in PBS, Millipore AB152); washed 2 × 5 min in PBS. Secondary antibodies (Alexa 488 rabbit) were applied 1:200 in PBS with 0.2 μg/ml Hoechst dye for 1 h and washed 2 × 5 min in PBS. One drop of DAKO fluorescent mounting medium were applied into each well. Plates were stored at 4°C until tyrosine-hydroxylase-positive (TH-positive) neurons were counted using a Thermo Scientific Cellomics® ArrayScan® VTI HCS Reader. Results were normalized against control condition and compared. Experiments were only included in the evaluation if at least 30% cell death was induced at the highest toxin concentration compared to non-treated control wells. To ensure that only healthy primary cultures were assessed, we furthermore excluded experiments with total cell counts below Mean minus standard deviation (SD) of the summarized experiments. […]
To examine whether GPR139 agonists protect against toxin-induced DA cell death, we first treated cultured DA midbrain neurons with the GPR139 agonists and MPP^+ . Subsequently, we determined survival of TH-positive neurons.
Figure 8 Three different GPR139 surrogate agonists protect primary dopaminergic (DA) midbrain neurons against 1-methyl-4-phenyl-pyridinium ionMPP^+ toxicity. […] TH-positive neurons were counted and normalized to numbers under control conditions. […] Each data point is calculated from 12 (0 μM and 1 μM MPP^+ concentrations); 4 (0.125 μM); 7 (0.25 μM); or 8 (0.5 μM) independent measurements.
Primary midbrain cultures were pretreated with the indicated amount of GPR139 agonist compound 3 and with either vehicle ( [drawing 5] ), or 1 μM MPP^+ ( [drawing 6] ); or MPP^+ with 10 μM of the antagonist compound 4 ( [drawing 7] ), or with the antagonist compound 4 alone ( [drawing 8] ). The number of TH-positive neurons was determined 24 h later and normalized to control conditions. […]

CN(C)C1CCN(C(=O)CNC(=O)Cc2cccc3ccccc23)C1 (stereo not drawn) [compound 2, N-[2-(3-Dimethylamino-pyrrolidin-1-yl)-2-oxo-ethyl]-2-Naphthalen-1-yl-acetamide]
protection against 6-OHDA toxicity [1]: do not protect
inhibition of binding to the norepinephrine transporter [2]: −4%
inhibition of binding to the DAT [3]: 2%
protection against rotenone toxicity [4]: do not protect
protection against MPP+ toxicity ([5]; 1 μM agonist 1 h, p ≤ 0.05 vs vehicle): significant
cells killed by 1 μM MPP+ that were rescued ([5]; 1 μM compound pre-incubation 1 h, TH-positive neurons): 40.5%
